In patent US7879566B2, “Methods for the identification of modulators of OSGPR114 or OSGPR78 activity, and their use in the treatment of disease” (OSI Pharmaceuticals, Inc., priority 2003, dated 2011):
pEC50: −log10 of the molar value.

Columns and labels:
[1] = molecular target: T1, OSGPR114 (Homo sapiens, UniProt Q9H1C0); experiment: Yeast Fus1p-LacZ β-galactosidase reporter assay, OSGPR114-transformed yeast; type: cell-based; details: for effect on fluorescence (β-galactosidase reporter): yeast transformed with OSGPR114
T1 construct: expressed in transfected cells; host or cells: engineered yeast (GPA1 replaced by G-alpha chimeras, STE3 deleted; Fus1p-LacZ reporters)
T1 sequence (Q9H1C0 whole entry): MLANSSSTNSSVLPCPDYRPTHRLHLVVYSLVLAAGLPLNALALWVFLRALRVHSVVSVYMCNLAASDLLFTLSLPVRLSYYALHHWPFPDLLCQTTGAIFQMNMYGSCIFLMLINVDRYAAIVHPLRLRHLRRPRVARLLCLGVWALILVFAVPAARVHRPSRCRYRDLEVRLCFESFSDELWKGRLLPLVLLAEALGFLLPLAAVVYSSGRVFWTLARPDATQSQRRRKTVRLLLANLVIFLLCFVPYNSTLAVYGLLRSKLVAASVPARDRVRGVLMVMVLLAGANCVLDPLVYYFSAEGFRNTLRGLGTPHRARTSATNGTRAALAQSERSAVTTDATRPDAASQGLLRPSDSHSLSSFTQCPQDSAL
Text: (§1) The yeast cell-based reporter assays have previously been described in the literature (e.g. see Miret J. J., et. al. (2002) J. Biol. Chem. 277:6881-6887; Campbell R. M., et. al. (1999) Bioorg Med. Chem. Lett. 9:2413-2418; King K., et. al. (1990) Science. 250:121-123); WO 99/14344; WO 00/12704; and U.S. Pat. No. 6,100,042). Briefly, yeast cells have been engineered such that the endogenous yeast G-alpha (GPA1) has been deleted and replaced with G-protein chimeras constructed using multiple techniques. Additionally the endogenous yeast alpha-cell GPCR, STE3 has been deleted to allow for a […] expression of a mammalian GPCR of choice. In the yeast, elements of the pheromone signaling transduction pathway, which are conserved in eukaryotic cells (for example, the mitogen-activated protein kinase pathway), drive the expression of Fus1. By placing β-galactosidase (LacZ) under the control of the Fus1 promoter (Fus1p), a system has been developed whereby receptor activation leads to an enzymatic read-out. Different yeast strains (e.g. FIG. 6) denote the presence of different G-alpha chimeras (see “yeast reporter assays” in Results section below for definitions).
(§2) Yeast cells are transformed by an adaptation of the Lithium acetate method described by Agatep et.al. (Agatep, R., et. al. (1998) Transformation of Saccharomyces cerevisiae by the lithium acetate/single-stranded carrier DNA/polyethylene glycol (LiAc/ss-DNA/PEG) protocol. Technical Tips Online, Trends Journals, Elsevier). Briefly, yeast cells are grown overnight on yeast tryptone plates (YT). Carrier single-stranded DNA (10 μg), 2 μg of each of two Fus1p-LacZ reporter plasmids (one with URA3 selection marker and one with TRP1), 2 μg of OSGPR114 or OSGPR78 in yeast expression vector (2p origin of replication) and a lithium acetate/polyethylene glycol/TE buffer is pipetted into an Epindorf tube. The yeast expression plasmid containing the receptor/no receptor control has a LEU2 marker. Yeast cells are inoculated into this mixture and the reaction proceeds at 30° C. for 60 minutes. The yeast cells are then heat-shocked at 42° C. for 15 minutes. The cells are then washed and spread on selection plates. The selection plates are synthetic defined yeast media minus LEU, URA and TRP (SD-LUT). After incubating at 30° C. for 2-3 days, colonies that grow on the selection plates are then tested in the LacZ assay.
(§3) In order to perform fluorometric enzyme assays for β-galactosidase, yeast cells were grown overnight in liquid SD-LUT media to an unsaturated concentration (i.e. the cells are still dividing and have not yet reached stationary phase). They are diluted in fresh media to an optimal assay concentration and 90 μL of yeast cells were added to 96-well black polystyrene plates (Costar). Compounds, dissolved in ethanol and diluted in a 1% BSA solution to 10× concentration, were added to the plates and the yeast are placed at 30° C. for 4 h. After 4 h, the substrate for the β-galactosidase is added to each well: The substrate may yield a fluorescent or calorimetric read-out upon the activity of the β-galactosidase. In these experiments, Fluorescein di(β-D-galactopyranoside) was used (FDG), a substrate for the enzyme that releases fluorescein, allowing a fluorometric read-out. 20 μL of 500 μM FDG was used. After incubation of the cells with the substrate for 30-60 mins, 20 μL of 1 M sodium carbonate is added to terminate the reaction and enhance the fluorescent signal. The plates were then read in a fluorometer at 485/535 nm. As an alternate read-out system, the yeast are also engineered with a Fus1p-HIS gene which means that activation of the receptor can also be measured through the growth of the yeast in a […] media.

[2] = molecular target: T2, OSGPR78 (Homo sapiens, UniProt P43657, I33V); experiment: Yeast Fus1p-LacZ β-galactosidase reporter assay, OSGPR78-transformed yeast; type: cell-based; details: yeast transformed with OSGPR78
T2 construct: expressed in transfected cells; host or cells: engineered yeast (GPA1 replaced by G-alpha chimeras, STE3 deleted; Fus1p-LacZ reporters)
T2 sequence (P43657 1-344 I33V): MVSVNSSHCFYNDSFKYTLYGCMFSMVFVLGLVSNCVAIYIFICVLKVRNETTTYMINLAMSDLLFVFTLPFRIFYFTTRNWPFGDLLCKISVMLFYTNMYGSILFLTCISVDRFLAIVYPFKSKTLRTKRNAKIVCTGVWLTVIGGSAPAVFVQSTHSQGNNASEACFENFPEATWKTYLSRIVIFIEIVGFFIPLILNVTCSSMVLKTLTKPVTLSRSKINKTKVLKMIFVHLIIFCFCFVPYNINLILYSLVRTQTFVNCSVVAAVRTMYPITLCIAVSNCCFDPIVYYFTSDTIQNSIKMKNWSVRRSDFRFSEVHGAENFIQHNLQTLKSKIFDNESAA
Text: as §1, §2, §3

[3] = system: vector transformed yeast cells; experiment: Yeast Fus1p-LacZ reporter assay, vector control (no receptor); type: cell-based; details: vector controls, same yeast strains
Text: as §1, §2
as §3, with “Compounds, dissolved in ethanol and diluted in a 1% BSA solution to 10× concentration, were added to the plates and the yeast are placed at 30° C. for 4 h.” left out, “20 μL of 500 μM FDG was used. After incubation of the cells with the substrate for 30-60 mins, 20 μL of 1 M sodium carbonate is added to terminate the reaction and enhance the fluorescent signal.” left out

[4] = molecular target: T1, OSGPR114; experiment: [35S]-GTPγS binding, CHO-OSGPR114 membranes; type: biochemical; details: CHO-OSGPR114 versus CHO membranes
Procedure: For example, in one method employed herein, membranes from untransfected CHO cells as well as OSGPR114 stable clones were prepared using the method described by Griffin et al (1998). Membranes were homogenized in buffer containing 50 mM Tris, 3 mM MgCl2, 100 mM NaCl, 1 mM EDTA, 1 uM GDP, 0.1% fatty acid free BSA, 0.01% Saponin, pH 7.4. Assays were carried out in a reaction mixture containing 50 mL of membrane suspension (5 mg/well), 50 mL of [^35S]-GTPgS binding (final concentration 0.5 nM: 50 mL aliquot counted to determine precise concentration employed) and either 50 mL of assay buffer, 50 mL of unlabeled GTPgS (defining nonspecific binding:final concentration is 10 mM) or 50 mL of each concentration of LPA. Incubations were carried out in triplicate for 60 minutes at 37° C. Reactions were terminated by rapid filtration over GF/B filters presoaked in ice cold wash buffer for 90 minutes. The filters were then washed 6 times with 0.3 mL of ice cold wash buffer (50 mM Tris, 5 mM MgCl2, pH 7.4). The filters were dried, covered with Microscint-20, dark adapted for 5 minutes, and counted on a 2 minute [^35S] protocol on a Packard TopCount LSC.

[5] = molecular target: endogenous CHO receptor; experiment: [35S]-GTPγS binding, parental CHO membranes; type: biochemical, hamster; details: 1 nM to 300 nM applied
Procedure: For example, in one method employed herein, membranes from untransfected CHO cells as well as OSGPR114 stable clones were prepared using the method described by Griffin et al (1998). Membranes were homogenized in buffer containing 50 mM Tris, 3 mM MgCl2, 100 mM NaCl, 1 mM EDTA, 1 uM GDP, 0.1% fatty acid free BSA, 0.01% Saponin, pH 7.4. Assays were carried out in a reaction mixture containing […], 50 mL of [^35S]-GTPgS binding (final concentration 0.5 nM: 50 mL aliquot counted to determine precise concentration employed) and either 50 mL of assay buffer, 50 mL of unlabeled GTPgS (defining nonspecific binding:final concentration is […]) or 50 mL of each concentration of LPA. Incubations were carried out in triplicate for 60 minutes at 37° C. Reactions were terminated by rapid filtration over GF/B filters presoaked in ice cold wash buffer for 90 minutes. The filters were then washed 6 times with 0.3 mL of ice cold wash buffer (50 mM Tris, 5 mM MgCl2, pH 7.4). The filters were dried, covered with Microscint-20, dark adapted for 5 minutes, and counted on a 2 minute [^35S] protocol on a Packard TopCount LSC.

[6] = molecular target: T1, OSGPR114; experiment: FLIPR intracellular calcium assay, CHO-OSGPR114 cells; type: cell-based; details: co-addition with LPA
Procedure: For example, in one method employed herein, CHO and CHO-114 cells were seeded at a concentration of 50K cells/well in […] growth media in clear, flat-bottom 96-well black assay plates and incubated overnight at 37 C. The growth media is aspirated from the cells and a dye solution ([…]) added to each well. The dye solution consists of 2 mM probenecid, 2 mM HBSS, […] in a growth media minus antibiotics solution. The cells are loaded with the dye for 1 h at 37 C before aspiration and rinsing with wash buffer (20 mM HBSS+2 mM Probenecid). Compound plates are then prepared with 4× compound/control. 150 ul of wash buffer is added to each well. Once the FLIPR is fully calibrated, compound is added to the plate and the release of calcium measured using 0.4 exposure length and a laser set at 0.3W.

Compound | effect on fluorescence (β-galactosidase reporter) [1] | effect on fluorescence (β-galactosidase reporter) [2] | response in vector transformed yeast cells [3] | response in yeast G-alpha chimera strains ([1]; chimeras of Galpha q (20156) and Galphas (20202)) | response in vector transformed yeast cells ([3]; listed as oleoyl LPA) | Emax, GTPγS binding [4] | pEC50 [5] | effect of co-addition on LPA calcium response [6]
CCCCCCCCCCCCCCCCCC(=O)OC[C@@H](O)COP(=O)(O)O [stearoyl LPA, stearoyl lysophosphatidic acid] | increase in fluorescence | increase in fluorescence | not in vector transformed cells | – | – | – | – | –
Nc1ncnc2c1ncn2[C@@H]1O[C@H](COP(=O)(O)OP(=O)(O)O)[C@@H](O)[C@H]1O [ADP] | no effect | no effect | – | – | – | – | – | –
CCCCCCCCC=CCCCCCCCC(=O)OCC(O)COP(=O)(O)O (centres unmarked) [Oleoyl LPA, oleoyl lysophosphatidic acid] | increase in fluorescence | increase in fluorescence | not in vector transformed cells | could produce a response | did not respond | comparable Emax values | 6.11 | –
CCCCCCCCCCCCCC(=O)OC[C@@H](O)COP(=O)(O)O [myristoyl LPA, myristoyl lysophosphatidic acid] | increase in fluorescence | increase in fluorescence | not in vector transformed cells | – | – | – | – | –
CCCCCCCCCCCCCCCC(=O)OC[C@@H](O)COP(=O)(O)O [palmitoyl LPA, palmitoyl lysophosphatidic acid] | increase in fluorescence | increase in fluorescence | not in vector transformed cells | – | – | – | – | –
platelet-activating factor [PAF] | no effect | no effect | – | – | – | – | – | –
pertussis toxin | – | – | – | – | – | – | – | completely abolished this effect
Nc1ncnc2c1ncn2[C@@H]1O[C@H](COP(=O)(O)OP(=O)(O)OP(=O)(O)O)[C@@H](O)[C@H]1O [ATP] | no effect | no effect | – | – | – | – | – | –
